From patent US20090247520A1, “INHIBITORS OF ANTIGEN RECEPTOR-INDUCED NF-kappa B ACTIVATION” (The Burnham Institute for Medical Research, priority 2008, published 2009)
“Also recorded” adds a separate entry of the source. Like-named read-outs stand apart in the source and are kept apart here.

Assays:
[1] = test system: CD40-induced NF-κB reporter gene activity; assay: NF-κB reporter in HEK293-NF-κB-luc cells over-expressing CD40; assay type: cell-based; details: CID-2858522 4 μM, IKK inhibitor 10 μM, PKC inhibitor 1 μM
Protocol: FIGS. 3 (A-F) HEK293-NF-κB-luc cells were pretreated with CID-2858522 (4 μM), IKK inhibitor, BMS-335541 (10 μM), or PKC inhibitor, Bisindolylmaleimide I (1 μM) for 2 hrs and then transfected with plasmids encoding CD4/TLR4 (A), CD40 (B), NOD1 (C), NOD2 (D), cIAP2-MALT1 (E), or XIAP and TAB (F), or pcDNA as control (compounds were not removed). After 48 hrs, luciferase activity was measured expressing data as fold increase relative to unstimulated cells (mean±SD; n=3). (G-H) HEK293-NF-κB-luc cells were pretreated with CID-2858522 (4 μM), or IKK inhibitor, BMS-335541 (10 μM) for 2 hrs and then cultured with 2 μM doxorubicin (G) or 16 μM retinoic acid (H). After 48 hrs, luciferase activity was measured as above.
Counter Screening and Secondary Assays. To counter-screen for inhibitors of the TNF pathway, HEK293-NFκB-Luc cells were seeded at 10^5 cells per well in 90 μL medium in white 96-well plates (Greiner Bio-One) and cultured overnight, before adding compounds (5 μL in medium) to cells. After 2 h incubation, 5 μL TNF (200 ng/mL) (R&D Systems) was added (final concentration 10 ng/mL) and cells were incubated for 16 h. Luciferase activity was measured using Britelite kit (Perkin Elmer). To counter-screen for inhibitors of NF-κB induced by TLR4, CD40, NOD1, NOD2, cIAP2/MALT, or XIAP/TAB, the 293-NF-κB-luc cells cultured in 96 well plates as above were pretreated with compounds for 2 h and then transfected using Lipofectamine 2000 with various plasmids including pcDNA3 (“empty vector” control) or plasmids encoding CD4-TLR4, CD40, NOD1, NOD2, cIAP2/MALT, XIAP/TAB, using 0.2 μL of transfection reagent containing 100 ng DNA per well. Cells were cultured in medium containing CID-2858522 or other compounds and luciferase activity was measured 48 h later. […] Reactions were then initiated by addition of 50 μL 160 nM ATP (Sigma) in PBS and luciferase activity was measured 2 h later using a luminometer (LJL Biosystems, Sunnyvale, Calif.).

[2] = test system: PMA/Ionomycin-induced IL-2 production; assay: IL-2 production by PMA/Ionomycin-stimulated Jurkat T cells (ELISA); assay type: cell-based, human
Protocol: FIG. 4A: Jurkat T cells were treated by anti-cd3/anti-cd28/anti-mouse IgG (6 μg/mL) or PMA/Ion (10 ng/mL) for 24 h, IL-2 production in medium was measured by ELISA kit. FIG. 4B-E: Jurkat T cells were pretreated by IKK inhibitor (B), PKC inhibitor (C), CID-2858522 (D) for 2 h and then treated by anti-cd3/anti-cd28/anti-mouse IgG (6 μg/mL) or PMA/Ion (10 ng/mL) for 24 h, IL-2 production in medium was measured by ELISA kit; E, Jurkat cells were treated by CID-2858522, PKC inhibitor and IKK inhibitor for 24 h, cell viability was measured by ATPlite kit.
In T cells, the antigen receptor stimulates several signal transduction pathways that converge on the IL-2 gene promoter, including NF-κB, NF-AT, and AP-1. For evaluating the effects of CID-2858522 on TCR-initiated, NF-κB-driven events in lymphocytes, we employed Jurkat T-leukemia cells, which have been utilized extensively as model for studying TCR-signaling leading to IL-2 gene expression. For these experiments, Jurkat cells were stimulated with either anti-CD3 (to activate the TCR complex) and anti-CD28 (co-stimulator) or with PMA/Ionomycin, in the presence or absence of CID-2858522, IKK inhibitor, or PKC inhibitor, then IL-2 production was measured 24 hrs later in culture supernatants. […] In contrast, CID-2858522 suppressed IL-2 production by CD3/CD28- and PMA/Ionomycin-stimulated Jurkat cells by approximately half (IC50) at concentrations <10 μM (FIG. 4D).
Lymphokine measurements. Human IL-2 or IL-8 levels in culture medium were measured by Enzyme-Linked Immunosorbent Assays (ELISAs), using BD OptEIA ELISAs (BD Biosciences, San Diego, Calif.), according to the manufacturer's protocol, using 96-well ELISA plates (BD Biosciences) and measuring absorbance within 30 minutes of initiating reactions using a SpectraMax 190 spectrophotometer (Molecular Devices).

[3] = test system: anti-CD3/CD28-induced lymphocyte proliferation; assay: Lymphocyte proliferation assay (3H-Thymidine), anti-CD3/CD28-stimulated splenocytes; assay type: cell-based; details: mouse splenocytes; for IC50: 3H-Thymidine incorporation, read-out: IC50, lymphocyte proliferation, T-cells (anti-CD3/CD28)
Protocol: (A) Isolated mouse primary splenocytes were cultured with anti-CD3/anti-CD28 (0.3 μg/mL each) or anti-IgM (3 μg/mL) for 48 h, then 1 μCi 3H-Thymidine was added for 12 h and incorporation into DNA was measured, expressing data as fold increase above unstimulated cells (mean±SD; n=3). (B-D) Primary splenocytes were pretreated for 2 h with IKK inhibitor, BMS-335541 (B), PKC inhibitor, Bisindolylmaleimide I (C) or CID-2858522 (D), then stimulated with anti-CD3/anti-CD28 (0.3 μg/mL) or anti-IgM (3 μg/mL) for 48 h. 1 μCi 3H-Thymidine was added for 12 h and incorporation into DNA was measured, expressing data as percent inhibition relative to control cells treated with DMSO (mean±SD; n=3). […] Levels of TRAF1 and β-actin were assessed by immunoblotting, quantified by densitometry and TRAF1 results reported relative to control cells, after normalization for β-actin (mean±SD). […] Then nuclear extracts were prepared and p65-DNA-binding activity was measured (mean±SD; n=3).
Lymphocyte proliferation assay. Splenocytes were isolated from normal Balb/c mice and red blood cells were removed using a mouse erythrocyte lysis kit (R&D Systems, Minneapolis, Minn.). Splenocytes were suspended in RMPI-1640 medium supplemented with 10% FBS, 1% penicillin-streptomycin, and 1 mM L-glutamine. Cells were diluted into 2×10^6 cells/mL and 200 μL were seeded in round bottom 96-well plates and incubated at 37° C. in 5% CO2 and 95% relative humidity. Cells were pretreated with compounds or DMSO diluted in medium for 2 h, then treated with anti-CD3/anti-CD28 or anti-IgM antibodies for 48 h, prior to adding 1 μCi [^3H]-Thymidine for (MP Biomedical, Solon, Ohio) 12 h. Cells were transferred to fiberglass filters (Wallac, Turku, Finland) using a FilterMate Harvester (Perkin Elmer), dried, and [^3H]-incorporation into DNA was quantified by scintillation counting Betaplate Scint (Perkin Elmer) and a MicroBetaTrilux LCS and luminescence counter (Perkin Elmer).

SMILES	suppression of CD40-induced NF-κB reporter [1]	suppression of PMA/Ionomycin-induced IL-2 production ([2]; Jurkat)	IC50 ([3]; Lymphocyte)	suppression of IL-2 production ([2]; PMA/Ionomycin Jurkat, PKC inhibitor <0.5 μM)	IC50 [3]	IC50 ([2]; Homo sapiens, PMA/Ionomycin-stimulated Jurkat cells, 24 h, read-out: IC50, suppression of IL-2 production (by approximately half))	effect on anti-CD3/CD28-induced lymphocyte proliferation [3]
Cc1ccc2nc(NCCN)c3ncc(C)n3c2c1 [BMS-345541, reference compound]	potently suppressed	partially suppressed	~4 µM				
CN(C)CCCn1cc(C2=C(c3c[nH]c4ccccc34)C(=O)NC2=O)c2ccccc21 [Bisindolylmaleimide I, reference compound]	not by CID-2858522 or by the PKC inhibitor			80-90%	11.5 µM		
Cc1cc2nc(NCCCO)n(CC(=O)c3cc(C(C)(C)C)c(O)c(C(C)(C)C)c3)c2cc1C [Compound 1, 2-(2-(3-Hydroxypropylamino)-5,6-dimethyl-1H-benzo[d]imidazol-1-yl)-1-(3,5-di-tert-butyl-4-hydroxyphenyl)ethanone]	did not inhibit; also recorded: not by CID-2858522					< 10 µM	minimal effect
